Results on one molecule are retold here after patent US20230114728A1 (Venatorx Pharmaceuticals, Inc., priority 2019, published 2023).

Converted amounts (≈) assume the structure as drawn. Where only a bound is given, the exact number is not on record here.

Assay [1] addresses T1, E. coli K12 PBP3 (Escherichia coli, UniProt P0AD68).
T1 construct: made in house
Description: biochemical. The class given is binding. A digest of the protocol:
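Fluorescence polarization (ex 490/em 520 nm) competition of inhibitors against Bocillin-FL at 0.1 μM, read up to 60 min. Final PBP levels: E. coli PBP3 1.5 μM; A. baumannii PBP2 2.5 μM, PBP3 0.2 μM in Tris pH 8.0/NaCl/glycerol/Tween 20; N. gonorrhoeae PBP2 […] in Hepes pH 8.0/NaCl/glycerol. EC50 = concentration halving PBP-bound Bocillin-FL.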

Assay [2] has as its target T2, P. aeruginosa PBP3 (Pseudomonas aeruginosa, UniProt G3XD46).
T2 construct: made in house
The experiment in a line: Bocillin-FL fluorescence polarization competition binding assay, P. aeruginosa PBP3. To be noted: fluorescence polarization competition binding assay using Bocillin-FL. In short, it runs like this:
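Binding of boronic acid inhibitors to purified Pseudomonas aeruginosa (PA01) PBP3 was measured by fluorescence polarization competition with Bocillin-FL, a fluorescent penicillin V. Reactions of 80 μl contained 0.75 μM PBP3 and 0.1 μM Bocillin-FL in 50 mM Hepes (pH 8.0), 300 mM NaCl and 5% (v/v) glycerol, in black 384-well plates. FP (Excitation 490 nm, Emission 520 nm) was read for up to 60 minutes. EC50 is the concentration that halves PBP-bound Bocillin-FL.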

Assay [3] deals with A. baumannii ATCC 19606. Description: Broth microdilution MIC in CAMHB. The class given is cell-based. To be noted: Acinetobacter baumannii, ATCC19606; MHB; read-out: Minimum Inhibitory Concentration, A. baumannii ATCC 19606. In short, it runs like this:
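CLSI microdilution; CAMHB; inoculum 2-8×10^5 CFU/mL from 3-5 h 37° C culture; 2-fold compound series; 16-20 h, 37° C; MIC = lowest well without visible growth.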
(Dilution methods test growth across graded concentrations, often in twofold steps.)

Assay [4] has as its system E. coli 901C. Description: Broth microdilution MIC in CAMHB. The format is cell-based. To be noted: Escherichia coli; E. coli 901C (hyper-permeable); MHB; read-out: Minimum Inhibitory Concentration, E. coli 901C. A digest of the protocol: (§1)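 Colonies from cation-adjusted Mueller Hinton agar are grown in broth (3-5 h, 37° C), adjusted by OD600, and added at 2-8×10^5 CFU/mL to 2-fold compound dilutions. After 16-20 h at 37° C, the lowest concentration without growth is taken as MIC.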

Assay [5] deals with E. coli AG100A. Description: Broth microdilution MIC in CAMHB. The class given is cell-based. To be noted: Escherichia coli, read-out: Minimum Inhibitory Concentration, E. coli AG100A. In short, it runs like this: as §1
The test system of assay [6] is E. coli AG100. The experiment in a line: Broth microdilution MIC in CAMHB. The class given is cell-based. The note with it: Escherichia coli; E. coli AG100 (wild-type parent); MHB; read-out: Minimum Inhibitory Concentration, E. coli AG100. A digest of the protocol: as §1
Assay [7] concerns E. coli ATCC 25922. Description: Broth microdilution MIC in CAMHB. The format is cell-based. The note with it: Escherichia coli, ATCC25922; E. coli ATCC 25922; MHB; read-out: Minimum Inhibitory Concentration, E. coli 25922. A digest of the protocol:
as §1

For assay [8], the system named is E. coli D22. Description: Broth microdilution MIC in CAMHB. The format is cell-based. To be noted: Escherichia coli; E. coli D22 (hyper-permeable); MHB; read-out: Minimum Inhibitory Concentration, E. coli D22. In short, it runs like this:
as §1

The test system of assay [9] is K. pneumoniae 848844 producing SHV-11 and KPC-2. Description: Broth microdilution MIC in CAMHB. To be noted: Klebsiella pneumoniae, read-out: Minimum Inhibitory Concentration, K. pneumoniae 848844. The class given is cell-based. A digest of the protocol:
as §1

Assay [10] has as its system K. pneumoniae SI-117 producing VIM-1. Description: Broth microdilution MIC in CAMHB. The format is cell-based. The note with it: Klebsiella pneumoniae, read-out: Minimum Inhibitory Concentration, K. pneumoniae SI-117. A digest of the protocol: as §1
For assay [11], the system named is K. pneumoniae UMM producing SHV-5 and KPC-2. The experiment in a line: Broth microdilution MIC in CAMHB. The class given is cell-based. The note with it: Klebsiella pneumoniae, read-out: Minimum Inhibitory Concentration, K. pneumoniae UMM. In short, it runs like this: as §1
Assay [12] relates to P. aeruginosa (ΔmexAB-oprM). The experiment in a line: Broth microdilution MIC in CAMHB. The format is cell-based. The note with it: Pseudomonas aeruginosa, read-out: Minimum Inhibitory Concentration, P. aeruginosa ΔmexAB-OprM. A digest of the protocol: as §1
For assay [13], the system named is P. aeruginosa ATCC 35151. The experiment in a line: Broth microdilution MIC in CAMHB. The format is cell-based. To be noted: Pseudomonas aeruginosa, ATCC35151; MHB; hyper-permeable strain; read-out: Minimum Inhibitory Concentration, P. aeruginosa ATCC 35151. A digest of the protocol: as §1
In assay [14] the test system is P. aeruginosa PAO1. The experiment in a line: Broth microdilution MIC in CAMHB. The format is cell-based. To be noted: Pseudomonas aeruginosa, MHB, read-out: Minimum Inhibitory Concentration, P. aeruginosa PAO1. As for the experimental part: To determine the ability of test compounds to inhibit the growth of bacterial strains, classic cell based broth microdilution minimum inhibitory concentration (MIC) assays were employed. MIC assays are performed according to CLSI methods except where otherwise noted (CLSI, 2018 and CLSI, 2019). The reference type strain E. coli ATCC 25922; the wild-type parent strain E. coli AG100; the hyper-permeable E. coli 901C and E. coli D22; and the E. coli AG100A strain lacking the acrAB efflux pump encoding genes were used to determine the ability of the PBP inhibitors to penetrate the outer membrane of gram-negative bacteria and inhibit bacterial growth. […] The P. aeruginosa ATCC 27853 and A. baumannii ATCC 19606, along with the hyper-permeable P. aeruginosa ATCC 35151 and an engineered efflux pump-compromised strain of P. aeruginosa (ΔmexAB-oprM) were used to determine the ability of PBP inhibitors to penetrate the outer membrane of P. aeruginosa and A. baumannii and assess antibacterial activity against these important gram-negative organisms.
Briefly, cryo-preserved bacterial cultures of challenge strains are streaked for isolation on appropriate agar medium, in this case cation-adjusted Mueller Hinton agar. Following incubation to allow growth of the colonies, plates are sealed with parafilm and stored refrigerated for up to two weeks. For preparation of assay inoculum and to ensure low variability, at least 5 colonies are picked from the agar plates with an inoculating loop and aseptically transferred to a culture tube containing 3 mL of cation-adjusted Mueller Hinton broth (CAMHB). The broth culture is grown for 3-5 hours at 37° C. with shaking at 200 rpm. Meanwhile, 2-fold serial dilutions of test compounds are conducted in a 96-well plate with a final volume of 75 μL per well at 2-fold the final desired concentration. After the dilution plates are set up the growing cultures are then diluted in a cuvette containing CAMHB and the optical density is measured at 600 nm. The inoculum is diluted such that 75 μL of this culture in CAMHB results in a starting bacterial concentration of 2-8×10^5 CFU/mL when added to the dilution plates. The plates are incubated for 16-20 hours for Enterobacteriaceae and Pseudomonas and 20-24 hours for Acinetobacter at 37° C. The MIC values are read visually as the lowest concentration well with no bacterial growth.

T2 sequence (G3XD46 whole entry): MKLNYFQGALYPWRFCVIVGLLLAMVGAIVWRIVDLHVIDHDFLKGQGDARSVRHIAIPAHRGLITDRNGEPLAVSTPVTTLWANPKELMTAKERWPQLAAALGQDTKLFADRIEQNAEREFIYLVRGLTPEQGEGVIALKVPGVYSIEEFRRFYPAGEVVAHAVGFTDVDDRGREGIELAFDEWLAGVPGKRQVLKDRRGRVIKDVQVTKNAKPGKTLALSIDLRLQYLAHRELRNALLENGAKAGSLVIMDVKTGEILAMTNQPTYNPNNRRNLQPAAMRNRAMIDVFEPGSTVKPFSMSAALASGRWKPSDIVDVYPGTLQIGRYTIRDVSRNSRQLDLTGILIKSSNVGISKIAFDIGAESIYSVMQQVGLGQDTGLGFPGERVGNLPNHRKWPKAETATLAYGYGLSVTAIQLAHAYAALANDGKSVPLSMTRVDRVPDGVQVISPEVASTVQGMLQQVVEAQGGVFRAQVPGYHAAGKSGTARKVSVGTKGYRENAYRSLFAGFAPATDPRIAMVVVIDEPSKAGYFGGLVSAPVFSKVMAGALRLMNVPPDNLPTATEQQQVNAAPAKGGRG
T1 sequence (P0AD68 1-577): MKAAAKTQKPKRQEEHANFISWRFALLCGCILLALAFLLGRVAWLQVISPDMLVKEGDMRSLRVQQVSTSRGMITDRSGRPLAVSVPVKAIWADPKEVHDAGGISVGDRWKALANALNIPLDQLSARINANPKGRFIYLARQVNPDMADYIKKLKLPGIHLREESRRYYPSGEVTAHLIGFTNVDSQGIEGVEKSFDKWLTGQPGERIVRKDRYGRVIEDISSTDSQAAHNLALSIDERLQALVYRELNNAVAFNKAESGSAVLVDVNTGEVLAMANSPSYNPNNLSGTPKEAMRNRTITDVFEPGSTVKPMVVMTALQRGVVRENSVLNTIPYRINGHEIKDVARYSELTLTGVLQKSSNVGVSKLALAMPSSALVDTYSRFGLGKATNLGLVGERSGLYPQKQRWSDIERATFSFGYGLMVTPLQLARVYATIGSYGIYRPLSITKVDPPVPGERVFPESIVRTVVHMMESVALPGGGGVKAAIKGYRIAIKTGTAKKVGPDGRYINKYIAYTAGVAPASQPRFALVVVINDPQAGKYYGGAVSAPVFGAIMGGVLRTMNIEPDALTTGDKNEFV

On to `CCN1CCN(C(=O)NC(C(=O)N[C@H]2Cc3ccc(C(F)(F)F)c(C(=O)O)c3OB2O)c2csc(N)n2)C(=O)C1=O` (stereo partly drawn) [Example 63, (3R)-3-(2-(2-aminothiazol-4-yl)-2-(4-ethyl-2,3-dioxopiperazine-1-carboxamido)acetamido)-2-hydroxy-7-(trifluoromethyl)-3,4-dihydro-2H-benzo[e][1,2]oxaborinine-8-carboxylic acid], for which the EC50 in assay [1] was > 500 µM. The “P. aeruginosa PBP3 Potency” value in assay [2] is “B (B represents a potency between 30 μM and 500 μM inclusive)”. For the same molecule, the MIC in assay [3] was > 128 µg/mL; in assay [4], 8 to 16 µg/mL (≈ 13.4 to 26.7 µM); in assay [5], > 128 µg/mL; in assay [6] it was > 128 µg/mL; in [7], > 128 µg/mL; in assay [8], > 128 µg/mL. Besides, the MIC was > 128 µg/mL in assay [9]; > 128 µg/mL in assay [10]; > 128 µg/mL in [11]; > 128 µg/mL in [12]; 8 to 16 µg/mL (≈ 13.4 to 26.7 µM) in assay [13]; > 128 µg/mL in [14].

The term EC50 denotes the midpoint of the concentration-response curve. High values mean weaker potency, low ones greater potency.
